From patent publication US5155209A, “R-(+) enantiomeric form of 7-(2, 3-epoxypropoxy) actinomycin D” (priority 1991, dated 1992)

Assays:
[1] = tested on: CCRF-CEM; conditions: cited from earlier work
[2] = tested on: P388/ADR; experiment: Antitumor activity against ip implanted P388/ADR in CDF1 mice; format: in vivo; design: OD (optimal dose of drugs): unit not given here; conditions: for % ILS (percent increase in median life time vs controls) / (surv) number of 60 days survivors/number of animals tested / MST (median survival time): ip qd 1-9, at optimal dose; for OD (optimal dose of drugs): treated ip qd 1-9
Method: ^e Optimal dose of drugs.
^ f Median survival time of tumor bearing mice.
^g Percent increase in median life time in days of drugtreated dying
animals vs those of controls; (survivors), number of 60 days
survivors/number of animals tested in the group.
In order to examine a broader spectrum of activity, these optical isomers are tested in two other mouse leukemia cell lines in vivo. One cell line, P388/ADR, is a derivative of the above P388/S made resistant to intercalating agents like […].

[3] = tested on: P388/S lymphocytic leukemia; conditions: cited from earlier work
[4] = tested on: leukemia L1210; experiment: Activity in mice bearing leukemia L1210; format: in vivo; conditions: L1210 ip in CDF1 mouse; for OD (optimal dose): ip days 1, 5, 9; for % ILS (percent increase in median life span) / (surv) number of over 60 days survivors/number of animals tested: ip days 1, 5, 9, at optimal dose
Excerpt: ^e OD, optimal dose of drugs in milligrams/killograms per injection,
administered ip on days 1, 5, and 9, following ip inoculation with
^f % ILS, percent increase in median life span in days, of the
tumorbearing drugtreated dying animals when compared with similar tumor
bearing mice but not treated with drugs. (surv), number of over 60 days
survivors/number of animals tested.

[5] = tested on: B16; experiment: Inhibition of growth in vitro of B16 cells; format: cell-based, mouse; conditions: actively growing tumor cells
Method: (§1) The analogues are assayed for in vitro growth inhibitory activity against several experimental tumor lines including human and murine leukemia, mouse melanoma, and human lymphoblastic leukemia.

[6] = tested on: B16 melanoma; experiment: B16 melanoma implanted sc, drug iv (sc-iv) in BDF1 mice; format: in vivo; conditions: B16 sc implanted; for % ILS / (surv) sixty day survivors/number of mice treated / MST (median survival time): drug iv day 1; for OD (optimal dose): drug iv day 1, 0.1 mL vehicle
Method: (§2) Subcutaneously implanted B16 melanoma in BDF1 mice is a slow growing tumor, but its rate of growth becomes faster when it is implanted ip. […] This is not consistent with data in other tumors; however, in this connection it should be pointed out that the combined effects of drugs (or enantiomers in this case) can be manifested in several ways, i.e., they can be synergistic, additive, or subtractive.
(§3) 0.2 ml of brei (tumor weight/Hank's balanced salt solution, (1:5) of B16
(§4) implanted sc or ip into groups of nine BDF1 mice on day 0. Drugs
(§5) administered iv on day 1 or ip on days 1, 5, and 9, following tumor
(§6) administered ip on days 1, 5, and 9. OD, optimal dose in
(§7) milligrams/milliliter of vehicle, and administered iv or ip in 0.1 mL of
(§8) vehicle (5% v/v Me2 SOsaline). MST, median survival times in days of
(§9) tumor bearing and nondrug treated (control) or drugtreated mice. % ILS,
(§10) percent increase in life span of drug treated groups over the control
(§11) group of test animals, excluding survivors. (surv), number of sixty day
(§12) survivors/number of mice treated with drug.

[7] = tested on: B16 melanoma; experiment: B16 melanoma implanted ip, drug ip (ip-ip) in BDF1 mice; format: in vivo; conditions: B16 ip implanted; for % ILS / (surv) sixty day survivors/number of mice treated / MST (median survival time): drug ip days 1, 5, 9; for OD (optimal dose): drug ip days 1, 5, 9, 0.1 mL vehicle
Method: as §2, §3, §4, §5, §6, §7, §8, §9, §10, §11, §12

[8] = tested on: L1210 cells; experiment: Inhibition of growth of L1210 cells in culture; format: cell-based, Murine
Method: as §1

[9] = tested on: P388/ADR; experiment: Inhibition of growth in vitro of P388/ADR cells; format: cell-based, mouse; conditions: actively growing tumor cells
Method: as §1

[10] = tested on: C26 colon carcinoma; experiment: C26 colon carcinoma implanted in CDF1 mice, drug ip; format: in vivo; conditions: for % ILS / (surv) sixty day survivors/number of mice treated / MST: drug ip days 1, 5, 9; for OD (optimal dose): drug ip days 1, 5, 9, 0.1 mL vehicle
Method: implantation. Primary colon C26 carcinoma (tripan blue excluding, 2.5
× 10^5 cells/mouse) implanted in CDF1 mice on day 0; drug
as §6, §7, §8, §9, §10, §11, §12

[11] = tested on: DNA synthesis in L1210 cells; experiment: Inhibition of DNA synthesis in L1210 ([methyl-14C]thymidine incorporation); format: cell-based, Murine; conditions: [methyl-14C]thymidine incorporation into DNA; read-out: inhibition of synthesis of nucleic acids in L1210 IC50 DNA
Method: (§13) ^a Drug concentration (micromolor) for 50% reduction of incorporation
(§14) of [methyl^14 C]thymidine into DNA^b and [5^3 H] uridine into
(§15) RNA^c from the rate of incorporation of the same radionucleotides in
(§16) nondrug treated L1210 cells growing actively in vitro.
(§17) Inhibition of nucleic acid synthesis in L1210 lymphoid leukemia cells by (±)-EPA and it optical isomers are assayed. […] To achieve this, a digestion of the nucleic acid pellet with DNase-free RNase enzyme, prior to final pelleting of the DNA precipitate is made to ensure that no more than ±8% contamination from […] into DNA takes place, and for this the necessary correction is made in the data reported in Table V.

[12] = tested on: RNA synthesis in L1210 cells; experiment: Inhibition of RNA synthesis in L1210 ([5-3H]uridine incorporation); format: cell-based, Murine; conditions: [5-3H]uridine incorporation into RNA; read-out: inhibition of synthesis of nucleic acids in L1210 IC50 RNA
Method: as §13, §14, §15, §16, §17

[13] = tested on: CCRF-CEM; experiment: In vitro growth inhibition of CCRF-CEM human lymphoblastic leukemia cells; format: cell-based; conditions: purer (90%) form of isomers
Method: as §1

For `Cc1c2oc3c(C)c(OCC4CO4)cc(C(=O)NC4C(=O)NC(C(C)C)C(=O)N5CCCC5C(=O)N(C)CC(=O)N(C)C(C(C)C)C(=O)OC4C)c3nc-2c(C(=O)NC2C(=O)NC(C(C)C)C(=O)N3CCCC3C(=O)N(C)CC(=O)N(C)C(C(C)C)C(=O)OC2C)c(N)c1=O` (racemic) [3b[(±)-EPA]] [7-(2,3-epoxypropoxy) actinomycin D], the “antitumor activity in CCRF-CEM cells in vitro” value [1] is listed as “high antitumor activity”, the “% ILS (percent increase in median life time vs controls)” value [2] is listed as 344% and the “(surv) number of 60 days survivors/number of animals tested” value [2] is listed as 4/10. For the same compound, the “MST (median survival time)” value [2] was 40 days, the “% ILS (percent increase in median life time vs controls)” value ([2]; listed as racemic EPA) was 344% and the “(surv) number of 60 days survivors/number of animals tested” value ([2]; listed as racemic EPA) was “four out of 10”. For the same compound, the “OD (optimal dose of drugs)” value [2] was 0.65, the “antitumor activity in P388/S mouse leukemia in vivo” value [3] was “high antitumor activity” and the “OD (optimal dose)” value [4] was 0.05 milligrams/killograms per inje. For the same compound, the “% ILS (percent increase in median life span)” value [4] was 186%, the “(surv) number of over 60 days survivors/number of animals tested” value [4] was 2/9 and the “inhibition of growth ID50 B16” value [5] was 0.0025 ± 0.0006 µM. For the same compound, the “% ILS” value [6] was 64%, the “(surv) sixty day survivors/number of mice treated” value (from here on “(surv) sixty day survivors/number”) [6] was 0/9 and the “MST (median survival time)” value [6] was 54.0 days. The “OD (optimal dose)” value [6] was 1.0 milligrams/milliliter of vehic, the “% ILS” value [7] was 105% and the “(surv) sixty day survivors/number” value [7] was 2/9. The “OD (optimal dose)” value [7] was 0.30 milligrams/milliliter of vehic, the “inhibition of growth of L1210 cells in culture; ID50” value (shortened to “inhibition of growth of L1210 cells”) [8] was 0.0287 ± 0.0087 µM and the “inhibition of growth ID50 P388/ADR” value [9] was 0.08 ± 0.011 µM. The “% ILS” value [10] was 64%, the “(surv) sixty day survivors/number” value [10] was 0/10 and the “MST” value [10] was 36.0 days. The “OD (optimal dose)” value [10] was 0.60 milligrams/milliliter of vehic, the IC50 [11] was 0.08 ± 0.019 µM and the IC50 [12] was 0.024 ± 0.004 µM.
In the case of `Cc1c2oc3c(C)c(OCC4CO4)cc(C(=O)NC4C(=O)NC(C(C)C)C(=O)N5CCCC5C(=O)N(C)CC(=O)N(C)C(C(C)C)C(=O)OC4C)c3nc-2c(C(=O)NC2C(=O)NC(C(C)C)C(=O)N3CCCC3C(=O)N(C)CC(=O)N(C)C(C(C)C)C(=O)OC2C)c(N)c1=O` [(R)-(+)-EPA, 7-(2,3-epoxypropoxy) actinomycin D], the “% ILS (percent increase in median life time vs controls)” value [2] is reported as 400%, the “(surv) number of 60 days survivors/number of animals tested” value [2] is reported as 4/10 and the “MST (median survival time)” value [2] is reported as 45 days. For the same compound, the “OD (optimal dose of drugs)” value [2] was 0.30, the “OD (optimal dose)” value [4] was 0.05 milligrams/killograms per inje and the “% ILS (percent increase in median life span)” value [4] was 199%. The “(surv) number of over 60 days survivors/number of animals tested” value [4] was 3/9, the “inhibition of growth ID50 B16” value [5] was 0.002 ± 0.0004 µM and the “% ILS” value [6] was 70%. For the same compound, the “(surv) sixty day survivors/number” value [6] was 1/9, the “MST (median survival time)” value [6] was 56.0 days and the “OD (optimal dose)” value [6] was 1.0 milligrams/milliliter of vehic. The “50% growth inhibitory dose (ID50)” value ([13]; listed as R-(+) isomer) was 0.002 µM, the “% ILS” value [7] was 105% and the “(surv) sixty day survivors/number” value [7] was 2/9. For the same compound, the “MST (median survival time)” value [7] was 39.0 days, the “OD (optimal dose)” value [7] was 0.30 milligrams/milliliter of vehic and the “inhibition of growth of L1210 cells” value [8] was 0.0231 ± 0.0077 µM. The “inhibition of growth ID50 P388/ADR” value [9] was 0.04 ± 0.012 µM, the “% ILS” value [10] was 89% and the “(surv) sixty day survivors/number” value [10] was 2/10. The “MST” value [10] was 41.5 days and the “OD (optimal dose)” value [10] was 0.60 milligrams/milliliter of vehic.
With `Cc1c2oc3c(C)c(OCC4CO4)cc(C(=O)NC4C(=O)NC(C(C)C)C(=O)N5CCCC5C(=O)N(C)CC(=O)N(C)C(C(C)C)C(=O)OC4C)c3nc-2c(C(=O)NC2C(=O)NC(C(C)C)C(=O)N3CCCC3C(=O)N(C)CC(=O)N(C)C(C(C)C)C(=O)OC2C)c(N)c1=O` [(S)-(-)-EPA, 7-(2,3-epoxypropoxy) actinomycin D] the “% ILS (percent increase in median life time vs controls)” value [2] was 377%, the “(surv) number of 60 days survivors/number of animals tested” value [2] was 5/10 and the “MST (median survival time)” value [2] was 43 days. For the same compound, the “OD (optimal dose of drugs)” value [2] was 0.80, the “OD (optimal dose)” value [4] was 0.05 milligrams/killograms per inje and the “% ILS (percent increase in median life span)” value [4] was 143%. The “(surv) number of over 60 days survivors/number of animals tested” value [4] was 1/9, the “inhibition of growth ID50 B16” value [5] was 0.0035 ± 0.001 µM and the “% ILS” value [6] was 60%. The “MST (median survival time)” value [6] was 53.0 days, the “OD (optimal dose)” value [6] was 1.0 milligrams/milliliter of vehic and the “50% growth inhibitory dose (ID50)” value ([13]; listed as S-(-) isomer) was 0.0035 µM. The “% ILS” value [7] was 74%, the “MST (median survival time)” value [7] was 33.0 days and the “OD (optimal dose)” value [7] was 0.30 milligrams/milliliter of vehic. The “inhibition of growth of L1210 cells” value [8] was 0.0568 ± 0.0088 µM, the “inhibition of growth ID50 P388/ADR” value [9] was 0.135 ± 0.012 µM and the “% ILS” value [10] was 64%. The “(surv) sixty day survivors/number” value [10] was 1/10, the “MST” value [10] was 36.0 days and the “OD (optimal dose)” value [10] was 0.90 milligrams/milliliter of vehic.
For `COc1cccc2c1C(=O)c1c(O)c3c(c(O)c1C2=O)C[C@@](O)(C(=O)CO)C[C@@H]3O[C@H]1C[C@H](N)[C@H](O)[C@H](C)O1` [adriamycin, reference compound], the “% ILS” value [6] was 79%, the “(surv) sixty day survivors/number” value [6] was 1/9 and the “MST (median survival time)” value [6] was 59.0 days. The “OD (optimal dose)” value [6] was 5.0 milligrams/milliliter of vehic, the “% ILS” value [7] was 224% and the “(surv) sixty day survivors/number” value [7] was 7/9. The “MST (median survival time)” value [7] was 60.0 days, the “OD (optimal dose)” value [7] was 5.0 milligrams/milliliter of vehic and the “% ILS” value [10] was 118%. The “(surv) sixty day survivors/number” value [10] was 3/10, the “MST” value [10] was 48.0 days and the “OD (optimal dose)” value [10] was 2.50 milligrams/milliliter of vehic.
With `CO[C@@]12[C@H](COC(N)=O)C3=C(C(=O)C(C)=C(N)C3=O)N1C[C@@H]1N[C@@H]12` [mitomycin, mitomycin C, reference compound] the “% ILS (percent increase in median life time vs controls)” value [2] was 400%, the “(surv) number of 60 days survivors/number of animals tested” value [2] was 5/10 and the “MST (median survival time)” value [2] was 45 days. For the same compound, the “OD (optimal dose of drugs)” value [2] was 1.0.
